Data: the NIST ThermoML archive (doi:10.1016/j.fluid.2008.03.012)
Numbers after ± are expanded uncertainties.

Conditions: 101.33 kPa, Liquid

SMILES: CCOC(=O)CC(C)=O [ethyl 3-oxobutanoate]
- mass density (278.15 K): 1043.1 ± 5 kg/m3
- mass density (288.15 K): 1034.5 ± 1.1 kg/m3
- mass density (298.15 K): 1023.5 ± 1.1 kg/m3
- mass density (313.15 K): 1008 ± 1.2 kg/m3
- mass density (328.15 K): 992.1 ± 1.3 kg/m3
- mass density (338.15 K): 981.9 ± 1.4 kg/m3
- mass density (348.15 K): 971.4 ± 1.5 kg/m3
